This note sets out measurements from PubChem BioAssay AID256 (DTP/NCI, 2004).

The assay concerns CD2F1 mice, L1210 leukemia ip, survival T/C. Description: NCI In Vivo Anticancer Drug Screen. Data for tumor model L1210 Leukemia (intraperitoneal) in CD2F1 (CDF1) mice. Conditions: higher = longer survival. The essentials:
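Vehicle-treated tumor-bearing mice served as controls (C) for compound-treated mice (T). Reported figure is T divided by C.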

The mark [1] stands for this setting: endpoint: mean survival time, dose: 100.0 mg/kg/injection, schedule: Q04DX002 (ip), vehicle: saline with Tween-80.
Where [2] appears, read: endpoint: mean survival time, dose: 200.0 mg/kg/injection, schedule: Q04DX002 (ip), vehicle: saline with Tween-80.
Where [3] appears, read: endpoint: mean survival time, dose: 6.25 mg/kg/injection, schedule: Q01DX001 (ip), vehicle: saline.

Values joined by “and” are separate entries in the source; they are usually repeats but may differ in a detail not shown here. Equal values may be shown once. Toxic doses and inconclusive results are not listed.

For `O=C(O)c1cccc(C(=O)O)c1C(=O)O.[NH-]C1CCCCC1[NH-].[Pt+2]`, the T/C (endpoint: median survival time, dose: 3.12 mg/kg/injection, schedule: Q04DX003 (ip), vehicle: saline) was 102 % of control and 109 % of control; the T/C (endpoint: median survival time, dose: 6.25 mg/kg/injection, schedule: Q04DX003 (ip), vehicle: saline) is 114 % of control and 103 % of control; the T/C (endpoint: median survival time, dose: 12.5 mg/kg/injection, schedule: Q04DX003 (ip), vehicle: saline) is 115 % of control and 108 % of control; the T/C (endpoint: median survival time, dose: 25.0 mg/kg/injection, schedule: Q04DX003 (ip), vehicle: saline) is 117 % of control; the T/C (endpoint: median survival time, dose: 50.0 mg/kg/injection, schedule: Q04DX003 (ip), vehicle: saline) is 152 % of control; the T/C (endpoint: median survival time, dose: 100.0 mg/kg/injection, schedule: Q04DX003 (ip), vehicle: saline) is 178 % of control and 197 % of control. Under “endpoint: median survival time, dose: 200.0 mg/kg/injection, schedule: Q04DX003 (ip), vehicle: saline”, the T/C is 282 % of control and 375 % of control.
Turning to `CC(C)(C)c1ccc(OC(=S)c2ccccc2)cc1`, the T/C runs as follows: under setting [1], 104 % of control; under setting [2], 89 % of control; (endpoint: mean survival time, dose: 400.0 mg/kg/injection, schedule: Q04DX002 (ip), vehicle: saline with Tween-80) 89 % of control.
As to `NNc1nc2c(=O)[nH]cnc2n1C1OC(CO)C(O)C1O` (centres undefined), the T/C was 98 % of control (endpoint: mean survival time, dose: 12.5 mg/kg/injection, schedule: Q01DX005 (ip), vehicle: distilled water + Tween-80); 98 % of control (endpoint: mean survival time, dose: 25.0 mg/kg/injection, schedule: Q01DX005 (ip), vehicle: distilled water + Tween-80); 100 % of control (endpoint: mean survival time, dose: 50.0 mg/kg/injection, schedule: Q01DX005 (ip), vehicle: distilled water + Tween-80); 107 % of control (endpoint: mean survival time, dose: 100.0 mg/kg/injection, schedule: Q01DX005 (ip), vehicle: distilled water + Tween-80); 104 % of control (endpoint: mean survival time, dose: 200.0 mg/kg/injection, schedule: Q01DX005 (ip), vehicle: distilled water + Tween-80).
Regarding `O=C(CCCCCCCCC(=O)OO)OO` (tested in a mixture with another compound), the T/C (endpoint: mean survival time, dose: 100.0 mg/kg/injection, schedule: Q01DX009 (ip), vehicle: saline with Tween-80) was 96 % of control.
As for `C/C(=N\N)c1ccc(Cl)cc1`, the T/C (endpoint: mean survival time, dose: 100.0 mg/kg/injection, schedule: Q04DX003 (ip), vehicle: saline with Tween-80) is 103 % of control; the T/C (endpoint: mean survival time, dose: 200.0 mg/kg/injection, schedule: Q04DX003 (ip), vehicle: saline with Tween-80) was 123 % of control; the T/C (endpoint: mean survival time, dose: 400.0 mg/kg/injection, schedule: Q04DX003 (ip), vehicle: saline with Tween-80) is 109 % of control.
Turning to `COC1OC(COC(=O)c2ccc([N+](=O)[O-])cc2)C(SC#N)C1OC(=O)c1ccc([N+](=O)[O-])cc1` (centres undefined), the T/C is, setting by setting: (endpoint: mean survival time, dose: 50.0 mg/kg/injection, schedule: Q01DX001 (ip), vehicle: saline) 101 % of control; (endpoint: mean survival time, dose: 100.0 mg/kg/injection, schedule: Q01DX001 (ip), vehicle: saline) 101 % of control; (endpoint: mean survival time, dose: 200.0 mg/kg/injection, schedule: Q01DX001 (ip), vehicle: saline) 91 % of control; (endpoint: mean survival time, dose: 400.0 mg/kg/injection, schedule: Q01DX001 (ip), vehicle: saline) 101 % of control.
Take `NCc1cccn1OCc1ccccc1`: the T/C was 96 % of control (endpoint: mean survival time, dose: 25.0 mg/kg/injection, schedule: Q01DX009 (ip), vehicle: Klucel (hydroxypropylcellulose) (HPC)); 96 % of control (endpoint: mean survival time, dose: 50.0 mg/kg/injection, schedule: Q01DX009 (ip), vehicle: Klucel (hydroxypropylcellulose) (HPC)); 107 % of control (endpoint: mean survival time, dose: 100.0 mg/kg/injection, schedule: Q01DX009 (ip), vehicle: Klucel (hydroxypropylcellulose) (HPC)).
For `CC(=O)OCC1OC(OC(C)=O)C(NC(=O)Nc2ccccc2)C(OC(C)=O)C1OC(C)=O` (centres undefined), the T/C by setting is: (endpoint: mean survival time, dose: 12.5 mg/kg/injection, schedule: Q01DX009 (ip), vehicle: other) 96 % of control; (endpoint: mean survival time, dose: 25.0 mg/kg/injection, schedule: Q01DX009 (ip), vehicle: other) 94 % of control; (endpoint: mean survival time, dose: 50.0 mg/kg/injection, schedule: Q01DX009 (ip), vehicle: other) 96 % of control; (endpoint: mean survival time, dose: 100.0 mg/kg/injection, schedule: Q01DX009 (ip), vehicle: other) 93 % of control; (endpoint: mean survival time, dose: 200.0 mg/kg/injection, schedule: Q01DX009 (ip), vehicle: other) 94 % of control.
For `CC1OC(O[C@@H]2C=C3CC[C@@H]4[C@H](CC[C@]5(C)[C@@H](c6ccc(=O)oc6)CC[C@]45O)[C@@]3(C)CC2)C(O)C(O)C1O` (some centres undefined), the T/C was 101 % of control (endpoint: mean survival time, dose: 1.25 mg/kg/injection, schedule: Q01DX001 (sc), vehicle: steriod suspending solution); 94 % of control (endpoint: mean survival time, dose: 1.25 mg/kg/injection, schedule: Q01DX009 (sc), vehicle: steriod suspending solution); 101 % of control (endpoint: mean survival time, dose: 2.5 mg/kg/injection, schedule: Q01DX001 (sc), vehicle: steriod suspending solution); 97 % of control (endpoint: mean survival time, dose: 2.5 mg/kg/injection, schedule: Q01DX009 (sc), vehicle: steriod suspending solution); 93 % of control (endpoint: mean survival time, dose: 2.5 mg/kg/injection, schedule: Q04DX003 (sc), vehicle: steriod suspending solution); 98 % of control (endpoint: mean survival time, dose: 5.0 mg/kg/injection, schedule: Q01DX001 (sc), vehicle: steriod suspending solution). Besides, the T/C by setting is: (endpoint: mean survival time, dose: 5.0 mg/kg/injection, schedule: Q01DX009 (sc), vehicle: steriod suspending solution) 95 % of control; (endpoint: mean survival time, dose: 5.0 mg/kg/injection, schedule: Q04DX003 (sc), vehicle: steriod suspending solution) 95 % of control; (endpoint: mean survival time, dose: 10.0 mg/kg/injection, schedule: Q01DX001 (sc), vehicle: steriod suspending solution) 101 % of control; (endpoint: mean survival time, dose: 10.0 mg/kg/injection, schedule: Q01DX009 (sc), vehicle: steriod suspending solution) 95 % of control; (endpoint: mean survival time, dose: 10.0 mg/kg/injection, schedule: Q04DX003 (sc), vehicle: steriod suspending solution) 112 % of control; (endpoint: mean survival time, dose: 20.0 mg/kg/injection, schedule: Q01DX001 (sc), vehicle: steriod suspending solution) 103 % of control. Moreover, the T/C (endpoint: mean survival time, dose: 20.0 mg/kg/injection, schedule: Q04DX003 (sc), vehicle: steriod suspending solution) was 101 % of control and the T/C (endpoint: mean survival time, dose: 40.0 mg/kg/injection, schedule: Q04DX003 (sc), vehicle: steriod suspending solution) was 95 % of control.
Take `CCN(CC)C(=O)Nc1cc(Cl)ccc1Cl`: the T/C is 97 % of control under setting [1] and 101 % of control under setting [2].
As for `CC1(C)N=C(N)N=C(N)N1c1cccc(CCCc2ccccc2)c1`, the T/C under setting [3] is 96 % of control.
Consider `Nc1nc2ncc(CSc3ccc(C(=O)NC(CCC(=O)O)C(=O)O)cc3)nc2c(=O)[nH]1` (centres undefined), for which the T/C (endpoint: mean survival time, dose: 1.0 mg/kg/injection, schedule: Q01DX009 (ip), vehicle: sodium bicarbonate) is 107 % of control; the T/C (endpoint: mean survival time, dose: 2.0 mg/kg/injection, schedule: Q01DX009 (ip), vehicle: saline with Tween-80) was 101 % of control; the T/C (endpoint: mean survival time, dose: 2.0 mg/kg/injection, schedule: Q01DX009 (ip), vehicle: sodium bicarbonate) is 111 % of control; the T/C (endpoint: mean survival time, dose: 4.0 mg/kg/injection, schedule: Q01DX009 (ip), vehicle: saline with Tween-80) is 101 % of control; the T/C (endpoint: mean survival time, dose: 4.0 mg/kg/injection, schedule: Q01DX009 (ip), vehicle: sodium bicarbonate) is 124 % of control; the T/C (endpoint: mean survival time, dose: 5.4 mg/kg/injection, schedule: Q01DX009 (ip), vehicle: sodium bicarbonate) was 90 % of control. Further, the T/C was 104 % of control (endpoint: mean survival time, dose: 8.0 mg/kg/injection, schedule: Q01DX009 (ip), vehicle: saline with Tween-80); 97 % of control (endpoint: mean survival time, dose: 8.0 mg/kg/injection, schedule: Q01DX009 (ip), vehicle: sodium bicarbonate); 95 % of control (endpoint: mean survival time, dose: 12.0 mg/kg/injection, schedule: Q01DX009 (ip), vehicle: sodium bicarbonate); 97 % of control (endpoint: mean survival time, dose: 16.0 mg/kg/injection, schedule: Q01DX009 (ip), vehicle: saline with Tween-80); 113 % of control (endpoint: mean survival time, dose: 16.0 mg/kg/injection, schedule: Q01DX009 (ip), vehicle: sodium bicarbonate); 101 % of control (endpoint: mean survival time, dose: 32.0 mg/kg/injection, schedule: Q01DX009 (ip), vehicle: saline with Tween-80).
Regarding `N#CC12OC1(C#N)C(=O)C=CC2=O` (centres undefined), the T/C is, setting by setting: under setting [3], 104 % of control; (endpoint: mean survival time, dose: 12.5 mg/kg/injection, schedule: Q01DX001 (ip), vehicle: saline) 89 % of control; (endpoint: mean survival time, dose: 25.0 mg/kg/injection, schedule: Q01DX001 (ip), vehicle: saline) 93 % of control.
Take `Cn1c(N)c(N)c(=O)n(C)c1=O`: the T/C was 109 % of control (endpoint: mean survival time, dose: 100.0 mg/kg/injection, schedule: Q04DX002 (ip), vehicle: saline); 102 % of control (endpoint: mean survival time, dose: 200.0 mg/kg/injection, schedule: Q04DX002 (ip), vehicle: saline); 109 % of control (endpoint: mean survival time, dose: 400.0 mg/kg/injection, schedule: Q04DX002 (ip), vehicle: saline).
For `CNC(=S)Nc1ccc(OC)c2ccccc12`, the T/C (endpoint: mean survival time, dose: 100.0 mg/kg/injection, schedule: Q04DX003 (ip), vehicle: Klucel (hydroxypropylcellulose) (HPC)) is 86 % of control; the T/C (endpoint: mean survival time, dose: 200.0 mg/kg/injection, schedule: Q04DX003 (ip), vehicle: Klucel (hydroxypropylcellulose) (HPC)) is 88 % of control; the T/C (endpoint: mean survival time, dose: 400.0 mg/kg/injection, schedule: Q04DX003 (ip), vehicle: Klucel (hydroxypropylcellulose) (HPC)) is 89 % of control.
